Like-named read-outs stand apart in the source and are kept apart here.
Legend:
Type in all cases: cell-based
HL-60 leukemia cell line [1] = test: CellTiter-Glo assay, drug administered alone; conditions: Homo sapiens
Protocol: (§1) The first and second tests were performed in triplicate on the above cell lines while reducing the concentration of venetoclax by half each time from 100 μM, and the third test was performed in triplicate on the BDCM cell line while reducing the concentration of venetoclax by half each time from 100 μM, and performed in triplicate on HL-60, MolM13, MolM14, and MV4-11 cell lines while reducing the concentration of venetoclax by half each time from 2.5 μM. The fourth test was performed in triplicate on HL-60, MolM13, MolM14, and MV4-11 cell lines while reducing the concentration by half each time from 2.5 μM.
(§2) Specifically, in the first and second tests, a 10-fold diluted solution was prepared by dissolving 50 μL of 10 mM venetoclax in 450 μL of solvent. 250 μL of the solution was serially diluted ½, an 8E-tube was filled with 250 μL of each dilution, and 80 μL of each cell line was dispensed into each well of a 96-well plate. Thereafter, 10 μL of each cell line was dispensed using JANUS and incubated for 72 hours under CO2. Celltiter-Glo assay was performed and then IC50 was calculated.
(§3) In the third test, for the BCDM cell line, a 10-fold diluted solution was prepared by dissolving 15 μL of 10 mM venetoclax in 135 μL of solvent. 100 μL of the solution was serially diluted ½, an 8E-tube was filled with 100 μL of each dilution, and the cell line was dispensed into a 96-well plate. Thereafter, 25 μL of the cell line was dispensed using JANUS and incubated for 72 hours under CO2. Celltiter-Glo assay was performed and then IC50 was calculated. Meanwhile, for the HL-60, MolM13, MolM14, and MV4-11 cell lines, a 10-fold diluted solution was prepared by dissolving […] of solvent. 200 μL of the solution was serially diluted ½, an 8E-tube was filled with 200 μL of each dilution, and each of the cell lines was dispensed into a 96-well plate. Thereafter, 60 μL of each cell line was dispensed using JANUS and incubated for 72 hours under CO2. Celltiter-Glo assay was performed and then IC50 was calculated.
(§4) The fourth test was performed on HL-60, MolM13, MolM14, and MV4-11 cell lines in the same manner as the third test.
(§5) The first and second tests were performed in triplicate on the above cell lines while reducing the concentration of 5-azacytidine by half each time from 100 μM. Specifically, in the first and second tests, a 10-fold diluted solution was prepared by dissolving 15 μL of 20 mM 5-azacytidine in 285 μL of solvent. 250 μL of the solution was serially diluted ½, an 8E-tube was filled with 250 μL of each dilution, and 80 μL of each cell line (3,000 cells) was dispensed into each well of a 96-well plate. Thereafter, 10 μL of each cell line was dispensed using JANUS and incubated for 72 hours under CO2. Celltiter-Glo assay was performed and then IC50 was calculated.
as §5, with “cytarabine” for “5-azacytidine”, “50,000” for “100”, “10” for “15”, “50” for “20”, “490” for “285”

[2] = tested on: MolM13 leukemia cell line; test: CellTiter-Glo assay, drug administered alone; conditions: Homo sapiens
Protocol: as §1, §2, §3, §4, §5
as §5, with “cytarabine” for “5-azacytidine”, “50,000” for “100”, “10” for “15”, “50” for “20”, “490” for “285”

[3] = tested on: MV4-11 leukemia cell line; test: CellTiter-Glo assay, drug administered alone; conditions: Homo sapiens
Protocol: as §1, §2, §3, §4, §5
as §5, with “cytarabine” for “5-azacytidine”, “50,000” for “100”, “10” for “15”, “50” for “20”, “490” for “285”

[4] = tested on: MolM14 leukemia cell line; test: CellTiter-Glo assay, drug administered alone; conditions: Homo sapiens
Protocol: as §1, §2, §3, §4, §5
as §5, with “cytarabine” for “5-azacytidine”, “50,000” for “100”, “10” for “15”, “50” for “20”, “490” for “285”

HL-60 leukemia cell line [5] = test: CellTiter-Glo assay, drug administered alone; conditions: Homo sapiens; remark: listed apart in the source
U937 leukemia cell line [6] = test: CellTiter-Glo assay, drug administered alone; conditions: Homo sapiens
BDCM leukemia cell line [7] = test: CellTiter-Glo assay, drug administered alone
BDCM leukemia cell line [8] = test: CellTiter-Glo assay, drug administered alone; conditions: 72 h, venetoclax alone
Protocol: as §1, §2, §3, §5
as §5, with “cytarabine” for “5-azacytidine”, “50,000” for “100”, “10” for “15”, “50” for “20”, “490” for “285”

U937 leukemia cell line [9] = test: CellTiter-Glo assay, drug administered alone; conditions: Homo sapiens, U-937, 72 h, venetoclax alone
Protocol: as §1, §2, §5
as §5, with “cytarabine” for “5-azacytidine”, “50,000” for “100”, “10” for “15”, “50” for “20”, “490” for “285”

THP-1 leukemia cell line [10] = test: CellTiter-Glo assay, drug administered alone; conditions: Homo sapiens, THP-1, 72 h, venetoclax alone
Protocol: as §1, §2, §5
as §5, with “cytarabine” for “5-azacytidine”, “50,000” for “100”, “10” for “15”, “50” for “20”, “490” for “285”

THP-1 leukemia cell line [11] = test: CellTiter-Glo assay, drug administered alone; conditions: Homo sapiens
[12] = tested on: MolM14 leukemia cell line; test: CellTiter-Glo assay, drug administered alone; conditions: Homo sapiens, MOLM-14, PHI-101 administered alone
[13] = tested on: MV4-11 leukemia cell line; test: CellTiter-Glo assay, drug administered alone; conditions: Homo sapiens, PHI-101 administered alone, Table 7
HL-60 leukemia cell line [14] = test: CellTiter-Glo assay, co-administration of PHI-101 and anticancer drug; conditions: PHI-101 at the minimum concentration, 5-azacytidine co-administration test
Protocol: (§6) Specifically, in the first and second tests, a 10-fold diluted solution was prepared by dissolving […] of solvent. 500 μL of the solution was serially diluted ½, an 8E-tube was filled with 500 μL of each dilution, and 90 μL of each cell line was dispensed into each well of a 96-well plate. Thereafter, 10 μL of each cell line was dispensed using JANUS and pretreated for 30 minutes under CO2. […] Next, the cells were incubated for 72 hours under CO2, Celltiter-Glo assay was performed and then IC50 was calculated.
(§7) In the third and fourth tests, a 10-fold diluted solution was prepared by dissolving 5 μL of 50 mM PHI-101 in 495 μL of solvent. 250 μL of the solution was serially diluted ½, an 8E-tube was filled with 250 μL of each dilution, and 60 μL of each cell line was dispensed into each well of a 96-well plate. Thereafter, 10 μL of each cell line was dispensed using JANUS and pretreated for 30 minutes under CO2. […] Next, the cells were incubated for 72 hours under CO2, Celltiter-Glo assay was performed and then IC50 was calculated.
(§8) Specifically, in the first and second tests, for BDCM, HL-60, THP-1, and U937 cell lines, a 10-fold diluted solution was prepared by dissolving 5 μL of 50 mM PHI-101 in 495 μL of solvent. […] Next, the cells were incubated for 72 hours under CO2, Celltiter-Glo assay was performed and then IC50 was calculated.

U937 leukemia cell line [15] = test: as above; conditions: PHI-101 at the minimum concentration, 5-azacytidine co-administration test
Protocol: as §6, §7, §8

[16] = venetoclax administered alone, Table 7, read-out: IC50 Venetoclax

CC1(C)CCC(CN2CCN(c3ccc(C(=O)NS(=O)(=O)c4ccc(NCC5CCOCC5)c([N+](=O)[O-])c4)c(Oc4cnc5[nH]ccc5c4)c3)CC2)=C(c2ccc(Cl)cc2)C1 [Venetoclax] gave an IC50 (HL-60 leukemia cell line [1]; HL-60, 72 h, venetoclax alone, 72 hours, read-out: IC50 First test) of 353 nM, an IC50 (HL-60 leukemia cell line [1]; HL-60, 72 h, venetoclax alone, 72 hours, read-out: IC50 Fourth test) of 276 nM and an IC50 (HL-60 leukemia cell line [1]; HL-60, 72 h, venetoclax alone, 72 hours, read-out: IC50 Second test) of 210 nM. For the same compound, the IC50 (HL-60 leukemia cell line [1]; HL-60, 72 h, venetoclax alone, 72 hours, read-out: IC50 Third test) was 283 nM, the IC50 (HL-60 leukemia cell line [1]; HL-60, venetoclax alone, read-out: IC50) was no more than 1000 nM and the IC50 ([2]; MOLM-13, venetoclax alone, MolM13, 72 hours, read-out: IC50 First test) was 1.8 nM. For the same compound, the IC50 ([2]; MOLM-13, venetoclax alone, MolM13, 72 hours, read-out: IC50 Fourth test) was 10.3 nM, the IC50 ([2]; MOLM-13, venetoclax alone, MolM13, 72 hours, read-out: IC50 Second test) was 12.5 nM and the IC50 ([2]; MOLM-13, venetoclax alone, MolM13, 72 hours, read-out: IC50 Third test) was 8.6 nM. The IC50 ([2]; MOLM-13, venetoclax alone, MolM13, read-out: IC50) was no more than 1000 nM, the IC50 ([2]; venetoclax administered alone, MolM 13, Table 7, read-out: IC50 Venetoclax) was 14.6 nM and the IC50 [3, 16] was 13.7 nM. It also gave an IC50 ([3]; venetoclax alone, 72 hours, read-out: IC50 First test) of 6.8 nM, an IC50 ([3]; venetoclax alone, 72 hours, read-out: IC50 Fourth test) of 14.1 nM and an IC50 ([3]; venetoclax alone, 72 hours, read-out: IC50 Second test) of 8.7 nM. For the same compound, the IC50 ([3]; venetoclax alone, 72 hours, read-out: IC50 Third test) was 21.9 nM, the IC50 ([3]; venetoclax alone, read-out: IC50) was no more than 1000 nM and the IC50 ([4]; MOLM-14, 72 h, venetoclax alone, MolM14, 72 hours, read-out: IC50 First test) was 172 nM. It also gave an IC50 ([4]; MOLM-14, 72 h, venetoclax alone, MolM14, 72 hours, read-out: IC50 Fourth test) of 219 nM, an IC50 ([4]; MOLM-14, 72 h, venetoclax alone, MolM14, 72 hours, read-out: IC50 Second test) of 415 nM and an IC50 ([4]; MOLM-14, 72 h, venetoclax alone, MolM14, 72 hours, read-out: IC50 Third test) of 147 nM. It also gave an IC50 ([4]; MOLM-14, venetoclax administered alone, MolM 14, Table 7, read-out: IC50 Venetoclax) of 283 nM, an IC50 ([4]; MOLM-14, venetoclax alone, MolM14, read-out: IC50) of no more than 1000 nM and an IC50 (HL-60 leukemia cell line [5]; HL-60, venetoclax administered alone, Table 7, read-out: IC50 Venetoclax) of 275 nM. It also gave an IC50 (U937 leukemia cell line [6]; U-937, venetoclax administered alone, Table 7, read-out: IC50 Venetoclax) of 7800 nM, an IC50 (BDCM leukemia cell line [7]; [16]) of 11000 nM and an IC50 (BDCM leukemia cell line [8]; read-out: IC50 First test) of 12.2 µM. For the same compound, the IC50 (BDCM leukemia cell line [8]; read-out: IC50 Second test) was 9.86 µM, the IC50 (BDCM leukemia cell line [8]; read-out: IC50 Third test) was 12.8 µM and the IC50 (U937 leukemia cell line [9]; read-out: IC50 First test) was 7.31 µM. For the same compound, the IC50 (U937 leukemia cell line [9]; read-out: IC50 Second test) was 8.32 µM, the IC50 (THP-1 leukemia cell line [10]; read-out: IC50 First test) was 12.5 µM and the IC50 (THP-1 leukemia cell line [10]; read-out: IC50 Second test) was 12.5 µM. For the same compound, the IC50 (THP-1 leukemia cell line [11]; THP-1, venetoclax administered alone, Table 7, read-out: IC50 Venetoclax) was 12500 nM.

NC(=O)Nc1cc(C#Cc2cccc(F)c2)sc1C(=O)N[C@H]1CCCNC1 [PHI-101, (S)-5-((3-fluorophenyl)ethynyl)-N-(piperidin-3-yl)-3-ureido-thiophene-2-carboxamide] gave an IC50 ([12]; Table 7) of 8 nM, an IC50 ([12]; Table 10) of 8 nM and an IC50 ([12]; Table 13) of 4 nM. It also gave an IC50 ([2]; PHI-101 administered alone, MolM 13, Table 7, read-out: IC50 PHI-101) of 1 nM, an IC50 (HL-60 leukemia cell line [5]; HL-60, PHI-101 administered alone, Table 7, read-out: IC50 PHI-101) of 2080 nM and an IC50 (HL-60 leukemia cell line [5]; HL-60, PHI-101 administered alone, Table 10, read-out: IC50 PHI-101) of 2200 nM. The IC50 (HL-60 leukemia cell line [5]; HL-60, PHI-101 administered alone, Table 13, read-out: IC50 PHI-101) was 1100 nM, the IC50 (U937 leukemia cell line [6]; U-937, PHI-101 administered alone, Table 7, read-out: IC50 PHI-101) was 1250 nM and the IC50 (U937 leukemia cell line [6]; U-937, PHI-101 administered alone, Table 10, read-out: IC50 PHI-101) was 3400 nM. It also gave an IC50 (U937 leukemia cell line [6]; U-937, PHI-101 administered alone, Table 13, read-out: IC50 PHI-101) of 850 nM, an IC50 [13] of 1 nM and an IC50 (BDCM leukemia cell line [7]; PHI-101 administered alone, Table 7, read-out: IC50 PHI-101) of 950 nM. For the same compound, the IC50 (BDCM leukemia cell line [7]; PHI-101 administered alone, Table 10, read-out: IC50 PHI-101) was 230 nM, the IC50 (BDCM leukemia cell line [7]; PHI-101 administered alone, Table 13, read-out: IC50 PHI-101) was 230 nM and the inhibitory activity (HL-60 leukemia cell line [14]) was no more than 50%. The inhibitory activity (U937 leukemia cell line [15]) was no more than 50%, the IC50 (THP-1 leukemia cell line [11]; THP-1, PHI-101 administered alone, Table 7, read-out: IC50 PHI-101) was 1530 nM and the IC50 (THP-1 leukemia cell line [11]; THP-1, PHI-101 administered alone, Table 10, read-out: IC50 PHI-101) was 735 nM. It also gave an IC50 (THP-1 leukemia cell line [11]; THP-1, PHI-101 administered alone, Table 13, read-out: IC50 PHI-101) of 735 nM.

— patent US20250312327A1, “COMPOSITION FOR COMBINATION THERAPY, COMPRISING 2,3,5-SUBSTITUTED THIOPHENE COMPOUND” (PHAROS IBIO CO., LTD, priority 2021, published 2025)
